Columns and labels:
[1] = cited from earlier work
[2] = Serum drug concentration after subcutaneous implantation of the minipump of Example 6; assay type: in vivo; settings: from s.c. minipump of Example 6 in male SD rats
Description: The subcutaneous implantation type minipump prepared in Example 6 was subcutaneously implanted in the back of 7-week-old male SD rats. After a predetermined time after the implantation, blood was drawn from the tail vein of the rats, and serum was separated.

| SMILES | pKa [1] | Period of sustained release [2] |
| --- | --- | --- |
| O=C(O)c1cc2ccccc2cc1O [3-hydroxy-2-naphthoic acid] | 2.708 |  |
| CONC(=O)Nc1ccc(-c2sc3c(c2CN(C)Cc2ccccc2)c(=O)n(-c2ccccc2)c(=O)n3Cc2c(F)cccc2F)cc1 [Reference Example 7, 5-(N-Benzyl-N-methylaminomethyl)-1-(2,6-difluorobenzyl)-6-[4-(3-methoxyureido)phenyl]-3-phenylthieno[2,3-d]pyrimidine-2,4(1H,3H)-dione] |  | 21 days |
